Data as given in US5972894A, “Peptides having potassium channel opener activity” (Cytran, Inc., priority 1997, dated 1999).
Several values for one entry are separate records, joined by “and”; a condition that tells them apart may be missing. Equal values may be shown once. Residues, ends and D or L forms follow the SMILES beside them.

What was measured:
Intestinal Smooth Muscle = assay: Calcium-induced contraction of intestinal smooth muscle specimens; assay type: cell-based, guinea pigs; settings: 20 mM CaCl2
Description: GE and VT served as test substances in this experiment. GE was tested at concentrations of 10^-6 g/ml and 10^-5 g/ml (4.9×10^-6 M and 4.9×10^-5 M, respectively), and VT was tested at concentrations 10^-6 g/ml and 10^-5 g/ml (4.58×10^-6 and 4.58×10^-5 M, respectively).
Small intestinal SMS samples from ten guinea pigs were surgically isolated and prepared as follows. First, the SMS samples were preincubated for 40 minutes in an organ bath holding a standard Krebs-Henseleit physiological salt solution containing calcium chloride (CaCl2) at concentration of 2.5 mM. Next, each SMS was washed with a calcium-free solution of Krebs-Henseleit and incubated in a calcium-free Krebs-Henseleit solution for 40 minutes. Contractile activity was pre-induced in each SMS by first perfusing the organ bath containing the sample for 15 minutes with a Krebs-Henseleit solution containing 30 mM KCl and then perfusing the bath for an additional 15 minutes with a Krebs-Henseleit solution containing 20 mM CaCl2. Finally, each SMS sample was washed with a calcium-free Krebs-Henseleit solution for 40 minutes. In these experiments, measurements of the contractile response of the SMS following the addition of a Krebs-Henseleit solution containing 20 mM calcium served as the control (baseline). Changes in contraction amplitudes were recorded by using the method set forth in Step 1 of Example 2, above.
After washing the SMS as outlined in Step 1, the organ bath with the SMS sample was perfused for 15 minutes with the solution of a test or reference substance. In this instance, GE and VT served as the test substances, and each dipeptide was tested at a concentration of 10^-6 g/ml.
Following perfusion with the test or reference substance, the SMS sample/organ bath was perfused for 10 minutes with a Krebs-Henseleit solution containing 30 mM KCl and then perfused for an additional 10 minutes with a Krebs-Henseleit solution containing 20 mM CaCl2. Next, each SMS sample was washed with a calcium-free Krebs-Henseleit solution for 40 minutes. The effect of the test or reference substance on the SMS sample was evaluated by measuring the contractile response (i.e., the change in contraction amplitude) of the sample following the addition of the Krebs-Henseleit solution containing 20 mM CaCl2.
Next, the organ bath was perfused for 10 minutes with a Krebs-Henseleit solution containing 30 mM KCl and then for additional 10 minutes with a Krebs-Henseleit solution containing 20 mM CaCl2. The effect of the respective test or reference substance was evaluated a second time by measuring the change in the contraction amplitude of the SMS following the addition of the Krebs-Henseleit solution containing 20 mM CaCl2. […]

mice = assay: Chloroform-induced arrhythmia; assay type: in vivo; settings: 240 mg/kg i.p. 15 min before chloroform
Description: Each mouse in the study was treated by intraperitoneal injection of a dose of a test or control substance 15 minutes prior to the administration of a deep chloroform anesthesia. A test or control substance was then administered to each mouse. […] Novocainamide, a known antiarrhythmic agent, served as the positive control substance and was administered to mice in the positive control group at a dose of 240 mg/kg. Physiological saline served as the negative control substance and was administered to the mice in the negative control group.
Chloroform anesthesia was administered to each mouse by placing the mouse in an airtight glass container with cotton wool soaked in 20 ml of absolute chloroform. At the moment of respiratory arrest, the mouse was removed from the jar and electrocardiogram (ECG) monitoring (standard lead II) was initiated and continued for 30 seconds. […] An antiarrhythmic activity for a particular dose of a test substance is pharmaceutically acceptable if 30% of the animals in a test group show the latter test results (i.e., namely, no sign of ventricular paroxysmal rhythm disturbances and heart rate below 100 beats per 30 seconds within 30 seconds following the respiratory arrest).

ischemic myocardium = assay: Inotropic function and arrhythmias of ischemic isolated rat heart during reperfusion; settings: 0.06-6.0 mg/l
From the text: Rat hearts were surgically isolated from white random-bred rats weighing approximately 250 g. The isolated hearts were perfused with a standard oxygenated (95% O2 and 5% CO2) Krebs-Henseleit solution in a retrograde manner (i.e., according to Langendorff and using a constant perfusate pressure of 80 cm of water). The hearts maintained a steady spontaneous contraction rate. A latex balloon catheter connected to a pressure transducer (EMT-746, Siemens-Elema, Sweden) was inserted into the left ventricle of each heart to measure the inotropic function of the heart (as described in Example 3, above). The left ventricle pressure variation curve was recorded using a polygraph.
Stage I ("adaptation regimen") consisted of a 30-minute adaptation of the respective rat hearts to the perfusion regimen. The baseline parameters for the inotropic function of each heart were recorded to establish the preischemic values for the following measured parameters: (i) the systolic pressure in the left ventricle (Psyst. mm Hg); (ii) the diastolic pressure in the left ventricle (Pdiast. mm Hg); (iii) the evolving pressure (Pev. =Psyst. -Pdist. mm Hg); (iv) the maximal rate of increase of left ventricle pressure (+dp/dtmax mm Hg/sec); and (v) the maximal rate of decrease of left ventricle pressure (-dp/dtmax mm Hg/sec). In addition, the heart rate (HR) of each heart was determined from the recordings made of the variations in the left ventricle pressure over time. In Stage II ("ischemic simulation"), ischemia was induced in each heart by shutting off the supply of the perfusion solution to the heart. Approximately 30 minutes later, Stage III ("reperfusion regimen") was initiated by restarting the reperfusion and including in the perfusate solution a test or control substance at one of the following respective concentrations: a perfusate solution of a test substance comprised 0.06, 0.6, or 6.0 mg/l GE, or 0.06, 0.6, or 6.0 mg/l VT, respectively; a perfusate solution of the positive control substance comprised 14 mg/l inosine. Inosine is a nucleoside preparation that produces a favorable inotropic effect on both normal and ischemic myocardium while inducing no rhythm disturbances or acceleration of ischemic contracture development. Woollard et al., Cardiovasc. Res. 15: 659-67 (1981). Inosine was obtained from Sigma Chemical Company, USA (Cat. Code I-4125; lot number 81H0227). The negative control substance comprised reperfusion using a standard oxygenated Krebs-Henseleit solution.
For each heart, the inotropic function of the myocardium was evaluated by measuring the parameters (i) through (v), discussed above, and the heart rate. These six parameters were recorded continuously throughout the study (i.e., beginning with Stage I and continuing through Stage III). The recordings were analyzed at the following times: (a) immediately before beginning Stage II (that is, after the 30-minute Stage I adaptation period, but before stopping perfusion); and (b) at 1, 5, 10, 20, and 30 minutes into the Stage III reperfusion.
The frequency and duration of rhythm disturbances in the 30-minute Stage III reperfusion period were determined by measuring the following parameters: (i) the number of ventricular extrasystoles; (ii) the overall duration of ventricular tachycardias (in seconds); and (iii) the overall duration of ventricular fibrillation (in seconds). Each dose of the test substance was tested on nine isolated hearts.

rats = assay: ECG parameters of cardiac function in Nembutal-anesthetized rats
Description: White random-bred male rats weighing about 200 g were anesthetized using Nembutal. A basal ECG was taken as soon as possible following anesthetization to establish basal measurements for the principal parameters of cardiac functions. Rats showing any deviation from normal ECG parameters were excluded from the study.
Each dose of each test substance was evaluated on a separate experimental group consisting of 10 rats. ECG traces (no less than 4 complexes each) were taken at 1, 3, 5, and 10 minutes after the injection of the test substance. Physiological saline served as the negative control substance. To each animal in the negative control group, 2 ml of physiological saline was injected intravenously.
Cardiac function was evaluated by monitoring the following ECG parameters:
(iv) the duration of the QT interval (which defines the time from the beginning of the QRS complex to the end of the T wave and reflects the duration of ventricular depolarization and repolarization). The normal value for this parameter for Nembutal-anesthetized rats is 50 to 106 ms using lead II ECG.

[1] = test system: Smooth Muscle Cells of Rat Portal Vein; assay: Spontaneous contractile activity of rat portal vein smooth muscle specimens; assay type: cell-based; settings: 5×10^-7 g/ml
Description: Rat portal vein SMS samples were surgically isolated from random bred rats weighing 200-250 g. The suitability of each isolated rat portal vein SMS was established by measuring the spontaneous contraction response and its contractile response of the specimen to potassium chloride (KCl) as follows. Each isolated SMS was placed into an organ bath with standard Krebs-Henseleit (KH) solution at 35° C. Then, 0.5 ml of physiological saline were added into the organ bath. In this procedure, one end of the smooth muscle strip was fixed, while the other end of the muscle strip was connected with a probe which transmitted contraction-induced signals to an analog-to-digital converter. The spontaneous contraction curve for each SMS was recorded by taking repeated measurements over a 1-minute period. Next, 0.5 ml of a 600 mM solution of KCl in physiological saline was added to the SMS sample/organ bath to achieve a final concentration of 60 mM KCl. KCl induces contraction of rat portal vein tissue at a fmal tissue concentration of about 60 mM.
The KCl-induced contraction curve for each specimen sample was then recorded over the next 5-minute period. […] During this stabilization period, the spontaneous contraction curve for each SMS was verified by monitoring the data obtained from analog-to-digital converter.
To each SMS in the organ bath prepared according to Steps 2 and 3 above, 0.5 ml of physiological saline was added, and the spontaneous contraction curve was recorded for 1 minute. Each spontaneous contraction curve served as baseline (control) curve for comparison with the respective spontaneous contraction of each SMS in the presence of a test substance or reference substance.
Spontaneous contraction curve values for each SMS were recorded by making repetitive measurements of the spontaneous contractile activity of each sample at 2, 5, 10, and 15 minutes after the addition of the test or reference substance to each SMS/organ bath. Next, 0.5 ml of a solution of 600 mM solution of KCl in […] in the organ bath until a final concentration of 60 mM KCl was achieved. The contractile activity of each SMS was then measured for 5 minutes.

## CN1[C@@H]2CC[C@H]1C[C@@H](OC(=O)C(CO)c1ccccc1)C2 (stereo partly shown) [Atropine, atropine]
Intestinal Smooth Muscle; Application I, 10^-7 g/ml
  Contraction Amplitude, calcium-induced (% of control level): 39.57%
Intestinal Smooth Muscle; Application II, 10^-6 g/ml
  Contraction Amplitude, calcium-induced (% of control level): 25.08%

## COc1ccc([C@@H]2Sc3ccccc3N(CCN(C)C)C(=O)[C@@H]2OC(C)=O)cc1 [Diltiazem, diltiazem]
Intestinal Smooth Muscle; Application I, 10^-9 g/ml
  Contraction Amplitude, calcium-induced (% of control level): 39.02%
Intestinal Smooth Muscle; Application II, 10^-8 g/ml
  Contraction Amplitude, calcium-induced (% of control level): 12.95%

## CCN(CC)CCNC(=O)c1ccc(N)cc1 [Novocainamide, reference compound]
mice
  Antiarrhythmic Effect (no. animals) %: 77.8%
  Antiarrhythmic Effect (no. animals) abs: 7
  Result: Antiarrhythmic effect

## CC(C)[C@H](N)C(=O)N[C@H](C(=O)O)[C@@H](C)O [VT, L-Valine-L-Threonine] (H-Val-Thr-OH)
Ischemic myocardium
  arrhythmogenic effect during reperfusion: Neither GE nor VT was found to have an arrhythmogenic effect
rats; 0.001 mg/kg i.v., 1 min
  Duration of QT Interval (% of Initial Mean Value): 101.80%
rats; 0.001 mg/kg i.v., 3 min
  Duration of QT Interval (% of Initial Mean Value): 105.73%
rats; 0.001 mg/kg i.v., 5 min
  Duration of QT Interval (% of Initial Mean Value): 102.20%
rats; 0.001 mg/kg i.v., 10 min
  Duration of QT Interval (% of Initial Mean Value): 101.24%
rats; 0.01 mg/kg i.v., 1 min
  Duration of QT Interval (% of Initial Mean Value): 99.86%
rats; 0.01 mg/kg i.v., 3 min
  Duration of QT Interval (% of Initial Mean Value): 101.48%
rats; 0.01 mg/kg i.v., 5 min
  Duration of QT Interval (% of Initial Mean Value): 101.09%
rats; 0.01 mg/kg i.v., 10 min
  Duration of QT Interval (% of Initial Mean Value): 97.32%
rats; 0.1 mg/kg i.v., 1 min
  Duration of QT Interval (% of Initial Mean Value): 102.97%
rats; 0.1 mg/kg i.v., 3 min
  Duration of QT Interval (% of Initial Mean Value): 98.39%
rats; 0.1 mg/kg i.v., 5 min
  Duration of QT Interval (% of Initial Mean Value): 95.65%
rats; 0.1 mg/kg i.v., 10 min
  Duration of QT Interval (% of Initial Mean Value): 90.67%
rats; 1.0 mg/kg i.v., 1 min
  Duration of QT Interval (% of Initial Mean Value): 105.57%
rats; 1.0 mg/kg i.v., 3 min
  Duration of QT Interval (% of Initial Mean Value): 105.58%
rats; 1.0 mg/kg i.v., 5 min
  Duration of QT Interval (% of Initial Mean Value): 102.18%
rats; 1.0 mg/kg i.v., 10 min
  Duration of QT Interval (% of Initial Mean Value): 101.18%
rats; 10.0 mg/kg i.v., 1 min
  Duration of QT Interval (% of Initial Mean Value): 94.89% and 102.97%
rats; 10.0 mg/kg i.v., 3 min
  Duration of QT Interval (% of Initial Mean Value): 95.91% and 105.82%
rats; 10.0 mg/kg i.v., 5 min
  Duration of QT Interval (% of Initial Mean Value): 96.52% and 103.51%
rats; 10.0 mg/kg i.v., 10 min
  Duration of QT Interval (% of Initial Mean Value): 88.88% and 104.78%
rats; 100.0 mg/kg i.v., 1 min
  Duration of QT Interval (% of Initial Mean Value): 100.00% and 96.62%
rats; 100.0 mg/kg i.v., 3 min
  Duration of QT Interval (% of Initial Mean Value): 100.82% and 100.45%
rats; 100.0 mg/kg i.v., 5 min
  Duration of QT Interval (% of Initial Mean Value): 97.96% and 99.74%
rats; 100.0 mg/kg i.v., 10 min
  Duration of QT Interval (% of Initial Mean Value): 94.74% and 102.25%

## COc1ccc(CCN(C)CCCC(C#N)(c2ccc(OC)c(OC)c2)C(C)C)cc1OC (stereo not shown) [Verapamil, reference compound]
[1]; 2 min after application
  Amplitude of spontaneous contraction (% of Control): 95.82%
  Area Under Curve of spontaneous contraction (% of Control): 82.41%
[1]; 5 min after application
  Amplitude of spontaneous contraction (% of Control): 78.58%
  Area Under Curve of spontaneous contraction (% of Control): 62.11%
[1]; 10 min after application
  Amplitude of spontaneous contraction (% of Control): 60.79%
  Area Under Curve of spontaneous contraction (% of Control): 49.83%
[1]; 15 min after application
  Amplitude of spontaneous contraction (% of Control): 37.92%
  Area Under Curve of spontaneous contraction (% of Control): 35.13%
